Laboratory results: patent US20250214951A1, “3-PHENYLISOXAZOLE DERIVATIVE, AND PHARMACEUTICAL COMPOSITION FOR PREVENTING OR TREATING EYE DISEASE, CONTAINING SAME AS ACTIVE INGREDIENT” (VASTHERA CO., LTD., priority 2022, published 2025)

Legend:
Type in all cases: cell-based, human
[1] = test system: A2E accumulated in ARPE-19 cells; experiment: Removal of intracellular A2E measured by HPLC/LC-MS; settings: ARPE-19 loaded with 50 μM A2E 48 h; 10, 25, 50 μM, 24 h; FIG. 2
Description: In Table 1 and FIG. 1, in order to measure the reduction of intracellular A2E by compounds, A2E-fluorescent substance (A2E-BDP) that is easy to observe fluorescence was used. In previous research reports, A2E-BDP is known to have the same intracellular dynamics and characteristics as A2E, but since A2E is a substance that actually exists in a living body, the quantitative change in intracellular A2E was directly measured using the HPLC method as follows.
ARPE-19 cell lines were dispensed into 6-well plates at a concentration of 4×10^3 cells/well and cultured for 24 hours. ARPE-19 cell lines were treated with A2E at a concentration of 50 μM for 48 hours to accumulate A2E intracellularly. To evaluate the A2E removal ability, ARPE-19 cells containing A2E were treated with compound 17 of the present invention (10, 25, 50 μM) for 24 hours. Thereafter, ARPE-19 cells were washed with phosphate-buffered saline (PBS), and cell lysis buffer containing a protease inhibitor was added to prepare a cell lysate. Chloroform and methanol (2:1, vol/vol) were added to the sample obtained above, shaken to extract A2E, and then centrifuged at 10,000 g for 10 minutes. […] LC-MS (Shimadzu LC-MS 2010EV) analysis was performed using a C18 column ([…]) with acetonitrile and 0.1% formic acid (gradient, 0-100%, 0-10 min; flow rate 1.0 ml/min; monitored at 503 nm). […]

LC3-II (autophagy flux) = experiment: Autophagy flux in ARPE-19 with or without bafilomycin A1; settings: 10, 25, 50 μM, 12 h, bafilomycin A1 2 nM 4 h, FIG. 7
Method: Autophagy flux was measured by comparing the degree of change in LC3-II protein formation by treatment with example 17 compound of the present invention in the presence and absence of bafilomycin A1 (Abcam, Cambridge, United Kingdom) by Western blotting (Seranova E. et al. Autophagy: Methods and Protocols, Methods in Molecular Biology, vol. 1880, pp 389-428, 2019, https://doi.org/10.1007/978-1-4939-8873-0_26).
The autophagy flux measurement in this experiment used saturating concentrations of bafilomycin A1, known as an autophagy inhibitor. […] Therefore, the effect of the example compound of the present invention on autophagy flux can be determined by examining the level of LC3-II following treatment with the example compound of the present invention in the presence or absence of saturating concentrations of bafilomycin A1.
Specifically, in this experiment, ARPE-19 cell lines were seeded in 6-well plates at a concentration of 1×10^5 cells/well and cultured for 24 hours. […] The LC3-II level was measured by the Western immunoblotting method using a specific anti-LC3-II antibody (Cell Signaling Technology, MA, USA). Meanwhile, after treating with example 17 compound in the same manner as above under the condition of treating with bafilomycin A1 at a concentration of 2 nM for 4 hours, the amount of LC3-II was measured by the Western immunoblotting method. […]

A2E-BDP in ARPE-19 cells = experiment: A2E-BDP removal ability by concentration of other example compounds; settings: indicated concentrations; FIG. 13
Method: The human retinal pigment epithelial cell line (ARPE-19) used in the experiment was provided by ATCC (American Type Culture Collection). The ARPE-19 cell line was cultured in DMEM medium containing 10% FBS. After culture, the cells were dispensed into 96-well plates at a concentration of 4×10^3 cells/well and cultured for 24 hours. The ARPE-19 cell line was treated with A2E-fluorescent labeling substance (A2E-BDP) at a concentration of 10 μM for 24 hours to induce the accumulation of A2E-BDP in the ARPE-19 cell line.
In order to evaluate the intracellular A2E removal ability of the compound of the present invention, an easily detectable A2E-fluorescent labeling substance (A2E-BDP) was used. The ARPE-19 cells prepared by the above method were treated with each test compound at a concentration of 50 μM once, and then cultured for 24 hours. The cells were lysed by adding a cell lysis buffer containing a protease inhibitor (50 mM Tris-chloride, pH 8.0, 150 mM sodium chloride, 1% NP-40, 1% sodium deoxycholate, 1% sodium dodecyl sulfate, and 2 mM ethylenediamine tetraacetic acid) to each 96-well. The prepared cell lysate was transferred to a white 96-well plate, and the fluorescence intensity was measured using a fluorescence microplate reader (VICTOR™ X3, Perkin Elmer, USA) (excitation 485 nm, emission 535 nm).
The A2E-fluorescent labeling substance (A2E-BDP) removal ability was evaluated according to Experimental Example 1 (except that the test compound was treated at the indicated concentration).

C=CCOCc1cc(-c2cc(CC=C)ccc2OC)no1 [Example 17, 3-(5-allyl-2-methoxyphenyl)-5-((allyloxy)methyl)isoxazole]
amount of accumulated A2E (HPLC) [1]: significantly reduced in a concentration-dependent manner | autophagy flux (difference in LC3-II with/without bafilomycin A1) (LC3-II (autophagy flux)): significantly increases autophagy flux | A2E-BDP removal ability by concentration (amount of A2E) (A2E-BDP in ARPE-19 cells): concentration-dependent decrease in the amount of A2E
